Reference: article PMC6152673, “Discovery of Indeno[1,2-c]quinoline Derivatives as Potent Dual Antituberculosis and Anti-Inflammatory Agents” (Molecules : A Journal of Synthetic Chemistry and Natural …, 2017)
Values after ≈ are worked out from the molar mass of the structure shown.

Key:
[1] = system: M. tuberculosis H37Rv (ATCC 27294); assay: Anti-Mycobacterium activity, broth microdilution Microplate Alamar Blue Assay (MABA); type: cell-based; details: MIC = lowest concentration effecting 90% reduction in fluorescence
[2] = system: fMLF-activated human neutrophils (superoxide anion generation); assay: Superoxide anion generation in fMLF-activated human neutrophils; type: cell-based; details: for IC50: Neutrophil, fMLF/cytochalasin B-activated human neutrophils, mean ± SEM (n = 3); for Inhibitory effect on superoxide anion generation (in words): fMLF-activated human neutrophils
Description: (§1) Superoxide generation and elastase release were carried out according to the procedures described previously. Neutrophils (6 × 10^5/mL) were equilibrated at 37 °C for 2 min and incubated with compounds for 5 min. Neutrophils were then activated by fMLF (100 nM) in the pretreatment of cytochalasin B (1 µg/mL for superoxide generation and 0.5 µg/mL for elastase release) for 10 min. Superoxide anion production was assayed by monitoring the superoxide dismutase-inhibitable reduction of ferricytochrome C. Elastase release was performed using MeO-Suc-Ala-Ala-Pro-Valp-nitroanilide as the elastase substrate.

[3] = system: fMLF-activated human neutrophils (neutrophil elastase release); assay: Neutrophil elastase release in fMLF-activated human neutrophils; type: cell-based; details: for IC50: Neutrophil, fMLF/cytochalasin B-activated human neutrophils, mean ± SEM (n = 3); for Inhibitory effect on NE release (in words): fMLF-activated human neutrophils
Description: as §1

Vero cells = assay: Vero cell viability (MTT, Promega Cell Titer 96)

| Structure (SMILES) | MIC [1] [µg/mL] | IC50 [2] [nM] | IC50 [3] [nM] | melting point [°C] | Survival Rate of Vero Cells @ 20 μg/mL (Vero cells) [%] | Inhibitory effect on superoxide anion generation (in words) [2] | Inhibitory effect on NE release (in words) [3] |
| --- | --- | --- | --- | --- | --- | --- | --- |
| O=C1c2ccccc2-c2c(N3CCCC3)nc3ccccc3c21 [Compound 3a, 6-(Pyrrolidin-1-yl)-11H-indeno[1,2-c]quinolin-11-one] | 4.56 (≈ 15.2 µM) | > 10000 | > 10000 | 163 to 164 | 88.61 |  |  |
| O=C1c2ccccc2-c2c(N3CCCCC3)nc3ccccc3c21 [Compound 3b, 6-(Piperidin-1-yl)-11H-indeno[1,2-c]quinolin-11-one] | 4.93 (≈ 15.7 µM) | > 10000 | > 10000 | 165 to 166 | 96.18 |  |  |
| O=C1c2ccccc2-c2c(N3CCOCC3)nc3ccccc3c21 [Compound 3c, 6-(Morpholino-1-yl)-11H-indeno[1,2-c]quinolin-11-one] | 3.12 (≈ 9.86 µM) | > 10000 | > 10000 | 171 to 173 | 91.19 |  |  |
| O=C1c2ccccc2-c2c(N3CCC(O)CC3)nc3ccccc3c21 [Compound 3d, 6-(4-Hydroxypiperidin-1-yl)-11H-indeno[1,2-c]quinolin-11-one] | 2.09 (≈ 6.33 µM) | 1780 ± 440 | 2200 ± 690 | 208 | 91.23 |  |  |
| O=C1c2ccccc2-c2c(N3CCCC(O)C3)nc3ccccc3c21 (centres unmarked) [Compound 3e, 6-(3-Hydroxypiperidin-1-yl)-11H-indeno[1,2-c]quinolin-11-one] | 4.97 (≈ 15 µM) | 2900 ± 110 | 2800 ± 90 | 211 to 212 | 87.78 |  |  |
| O=C1c2ccccc2-c2c(N3CCC(CO)CC3)nc3ccccc3c21 [Compound 3f, 6-(4-Piperidinemethano-1-yl)-11H-indeno[1,2-c]quinolin-11-one] | 3.98 (≈ 11.6 µM) | 3370 ± 170 | 4500 ± 1320 | 223 to 224 | 91.11 |  |  |
| O=C1c2ccccc2-c2c(N3CCCC(CO)C3)nc3ccccc3c21 (centres unmarked) [Compound 3g, 6-(3-Piperidinemethano-1-yl)-11H-indeno[1,2-c]quinolin-11-one] | 3.07 (≈ 8.91 µM) | 2770 ± 470 | 2120 ± 1190 | 220 to 221 | 92.25 |  |  |
| COc1ccc2c(c1)C(=O)c1c-2c(N2CCCC2)nc2ccccc12 [Compound 4a, 9-Methoxy-6-(pyrrolidin-1-yl)-11H-indeno[1,2-c]quinolin-11-one] | 17 (≈ 51.5 µM) | > 10000 | > 10000 |  | 89.62 |  |  |
| COc1ccc2c(c1)C(=O)c1c-2c(N2CCCCC2)nc2ccccc12 [Compound 4b] | > 20 | > 10000 | > 10000 |  | 99.55 |  |  |
| COc1ccc2c(c1)C(=O)c1c-2c(N2CCOCC2)nc2ccccc12 [Compound 4c] | > 20 | > 10000 | > 10000 |  | 94.47 |  |  |
| COc1ccc2c(c1)C(=O)c1c-2c(N2CCC(O)CC2)nc2ccccc12 [Compound 4d, 6-(4-Hydroxypiperidin-1-yl)-9-methoxy-11H-indeno[1,2-c]quinolin-11-one] | 7.74 (≈ 21.5 µM) | 2820 ± 300 | 2050 ± 240 |  | 84.72 |  |  |
| COc1ccc2c(c1)C(=O)c1c-2c(N2CCCC(O)C2)nc2ccccc12 (centres unmarked) [Compound 4e, 6-(3-Hydroxypiperidin-1-yl)-9-methoxy-11H-indeno[1,2-c]quinolin-11-one] | 19.1 (≈ 53 µM) | 1890 ± 650 | 2930 ± 700 | 191 to 192 | 87.59 |  |  |
| COc1ccc2c(c1)C(=O)c1c-2c(N2CCC(CO)CC2)nc2ccccc12 [Compound 4f, 6-[4-(Hydroxymethyl)piperidin-1-yl]-9-methoxy-11H-indeno[1,2-c]quinolin-11-one] | > 20 | 1930 ± 920 | 880 ± 300 | 218 to 219 | 90.26 |  |  |
| COc1ccc2c(c1)C(=O)c1c-2c(N2CCCC(CO)C2)nc2ccccc12 (centres unmarked) [Compound 4g, 6-[3-(Hydroxymethyl)piperidin-1-yl]-9-methoxy-11H-indeno[1,2-c]quinolin-11-one] | > 20 | 680 ± 140 | 460 ± 80 | 243 to 244 | 87.60 |  |  |
| OC1CCN(c2nc3ccccc3c3c2-c2ccccc2C3)CC1 [Compound 5, 1-(11H-Indeno[1,2-c]quinolin-6-yl)piperidin-4-ol] | 18 (≈ 56.9 µM) | 4020 ± 1080 | 5290 ± 480 |  | 85.41 | weakly active | weakly active |
| CC1(O)c2ccccc2-c2c(N3CCC(O)CC3)nc3ccccc3c21 (centres unmarked) [Compound 6, 6-(4-Hydroxypiperidin-1-yl)-11-methyl-11H-indeno[1,2-c]quinolin-11-ol] | > 20 | > 10000 | > 10000 | 146 to 147 | 89.83 | inactive | inactive |
| O/N=C1\c2ccccc2-c2c(N3CCC(O)CC3)nc3ccccc3c21 [Compound 7, (E)-6-(4-Hydroxypiperidin-1-yl)-11H-indeno[1,2-c]quinolin-11-one Oxime] | > 20 | 830 ± 470 | 1390 ± 640 | 155 to 156 | 84.14 | comparable anti-inflammatory activity | comparable anti-inflammatory activity |
| CO/N=C1\c2ccccc2-c2c(N3CCC(O)CC3)nc3ccccc3c21 [Compound 8, (E)-6-(4-Hydroxypiperidin-1-yl)-11H-indeno[1,2-c]quinolin-11-one O-methyl Oxime] | > 20 | 2680 ± 950 | 2130 ± 920 | 183 to 184 | 91.48 | comparable anti-inflammatory activity | comparable anti-inflammatory activity |
| NC(=O)N/N=C1\c2ccccc2-c2c(N3CCC(O)CC3)nc3ccccc3c21 [Compound 9, (E)-2-[6-(4-Hydroxypiperidin-1-yl)-11H-indeno[1,2-c]quinolin-11-ylidene]hydrazine Carboxamide] | > 20 | 3640 ± 1430 | > 10000 | 289 to 290 | 81.20 |  |  |
| NC(=S)N/N=C1\c2ccccc2-c2c(N3CCC(O)CC3)nc3ccccc3c21 [Compound 10, (E)-2-[6-(4-Hydroxypiperidin-1-yl)-11H-indeno[1,2-c]quinolin-11-ylidene]hydrazine Carbothioamide] | > 20 | 2410 ± 360 | > 10000 | 304 to 305 | 80.28 |  |  |
| O=C(N/N=C1\c2ccccc2-c2c(N3CCC(O)CC3)nc3ccccc3c21)c1ccccc1 [Compound 11, (E)-N′-[6-(4-Hydroxypiperidin-1-yl)-11H-indeno[1,2-c]quinolin-11-ylidene]benzohydrazide] | 1.98 (≈ 4.41 µM) | 1670 ± 870 | > 10000 | 258 to 259 | 89.55 |  | inactive |
| O=C(N/N=C1\c2ccccc2-c2c(N3CCC(O)CC3)nc3ccccc3c21)c1ccncc1 [Compound 12, (E)-N′-[6-(4-Hydroxypiperidin-1-yl)-11H-indeno[1,2-c]quinolin-11-ylidene]isonicotino Hydrazide] | 0.96 (≈ 2.14 µM) | 1720 ± 230 | 1760 ± 490 | 282 to 283 | 94.25 |  |  |
| NNC(=O)c1ccncc1 [INH, isoniazid, reference compound] | 0.8 to 1.2 (≈ 5.83 to 8.75 µM) |  |  |  | 84.80 |  |  |
